This assay relates to AMPK. As to the kind of experiment: AMPK enzyme activity assay (Delfia technology, AMARA peptide substrate). The class given is biochemical. The following applies: compound at 30 μM vs AMP at 200 μM. The method, boiled down:
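Value is the ratio of compound (30 μM) to AMP (200 μM) response, each as % of basal control. Phosphorylation of the AMARA peptide after AMPK addition was read by Delfia with an anti-phosphoserine antibody.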

Each structure is given as a SMILES string.

With `COc1cc(-c2csc3c2C(=O)C(F)(c2ccccc2)C(=O)N3)ccc1Br` (centres unmarked) [No 159, 3-(4-bromo-3-methoxy-phenyl)-5-fluoro-5-phenyl-7H-thieno[2,3-b]pyridine-4,6-dione], the “Activity: Ratio between the % of control (basal activity) of compound of formula (1) at 30 μM and the % of control (basal activity) of AMP (natural substrate) at 200 μM” value (“Activity: Ratio between the % of control” for short) is “C (C≧75%)”. Regarding `COc1cc(-c2c(F)sc3c2C(=O)C(F)(c2ccccc2)C(=O)N3)ccc1Br` (centres unmarked) [No 160, 3-(4-bromo-3-methoxy-phenyl)-2,5-difluoro-5-phenyl-7H-thieno[2,3-b]pyridine-4,6-dione], the “Activity: Ratio between the % of control” value is reported as “B (50%≦B<75%)”. To `O=C1Nc2scc(-c3cccc(Br)c3)c2C(=O)C1(F)c1ccccc1` (centres unmarked) [No 163, 3-(3-bromophenyl)-5-fluoro-5-phenyl-7H-thieno[2,3-b]pyridine-4,6-dione] belongs “B (50%≦B<75%)”; to `O=C1Nc2sc(F)c(-c3cccc(Br)c3)c2C(=O)C1(F)c1ccccc1` (centres unmarked) [No 164, 3-(3-bromophenyl)-2,5-difluoro-5-phenyl-7H-thieno[2,3-b]pyridine-4,6-dione], “C (C≧75%)”; to `COc1ccc(C2(F)C(=O)Nc3sc(F)c(-c4ccc(F)cc4)c3C2=O)cc1` (centres unmarked) [No 165, 2,5-difluoro-3-(4-fluorophenyl)-5-(4-methoxyphenyl)-7H-thieno[2,3-b]pyridine-4,6-dione], “C (C≧75%)”. Take `O=C1Nc2scc(-c3ccc(Br)cc3)c2C(=O)C1(F)c1cccnc1` (centres unmarked) [No 166, 3-(4-bromophenyl)-5-fluoro-5-(3-pyridyl)-7H-thieno[2,3-b]pyridine-4,6-dione]: the “Activity: Ratio between the % of control” value is given as “A (0%<A<50%)”. For the compound `COc1ccc(C2(F)C(=O)Nc3scc(-c4ccccc4)c3C2=O)cc1` (centres unmarked) [No 167, 5-fluoro-5-(4-methoxyphenyl)-3-phenyl-7H-thieno[2,3-b]pyridine-4,6-dione], the “Activity: Ratio between the % of control” value is given as “A (0%<A<50%)”. Consider `COc1ccc(C2(F)C(=O)Nc3sc(F)c(-c4ccccc4)c3C2=O)cc1` (centres unmarked) [No 168, 2,5-difluoro-5-(4-methoxyphenyl)-3-phenyl-7H-thieno[2,3-b]pyridine-4,6-dione], for which the “Activity: Ratio between the % of control” value is recorded as “A (0%<A<50%)”. For the compound `COc1ccc(C2(F)C(=O)Nc3sc(Cl)c(-c4ccc(F)cc4O)c3C2=O)cc1` (centres unmarked) [No 169, 2-chloro-5-fluoro-3-(4-fluoro-2-hydroxy-phenyl)-5-(4-methoxyphenyl)-7H-thieno[2,3-b]pyridine-4,6-dione], the “Activity: Ratio between the % of control” value is recorded as “C (C≧75%)”. To `Cc1cccc(-c2c(Cl)sc3c2C(=O)C(C)(c2ccc(F)cc2)C(=O)N3)c1` (centres unmarked) [No 170, 2-chloro-5-(4-fluorophenyl)-5-methyl-3-(m-tolyl)-7H-thieno[2,3-b]pyridine-4,6-dione] belongs “A (0%<A<50%)”. With `Cc1cccc(-c2c(Cl)sc3c2C(=O)C(C)(c2cccc(C)c2)C(=O)N3)c1` (centres unmarked) [No 171, 2-chloro-5-methyl-3,5-bis(m-tolyl)-7H-thieno[2,3-b]pyridine-4,6-dione], the “Activity: Ratio between the % of control” value was “A (0%<A<50%)”.

`O=C1Nc2scc(-c3ccc(Cl)cc3)c2C(=O)C1(F)c1ccccc1` (centres unmarked) [No 172, 3-(4-chlorophenyl)-5-fluoro-5-phenyl-7H-thieno[2,3-b]pyridine-4,6-dione]: the “Activity: Ratio between the % of control” value is “B (50%≦B<75%)”. To `O=C1Nc2sc(F)c(-c3ccc(Cl)cc3)c2C(=O)C1(F)c1ccccc1` (centres unmarked) [No 173, 3-(4-chlorophenyl)-2,5-difluoro-5-phenyl-7H-thieno[2,3-b]pyridine-4,6-dione] belongs “B (50%≦B<75%)”. On to `O=C1Nc2scc(-c3ccc(F)cc3OCc3ccccc3)c2C(=O)C1(F)c1ccccc1` (centres unmarked) [No 174, 3-(2-benzyloxy-4-fluoro-phenyl)-5-fluoro-5-phenyl-7H-thieno[2,3-b]pyridine-4,6-dione], for which the “Activity: Ratio between the % of control” value is “A (0%<A<50%)”. Consider `O=C1Nc2sc(F)c(-c3ccc(F)cc3OCc3ccccc3)c2C(=O)C1(F)c1ccccc1` (centres unmarked) [No 175, 3-(2-benzyloxy-4-fluoro-phenyl)-2,5-difluoro-5-phenyl-7H-thieno[2,3-b]pyridine-4,6-dione], for which the “Activity: Ratio between the % of control” value was “A (0%<A<50%)”. The value for `Cc1cccc(C2(Cl)C(=O)Nc3sc(Cl)c(-c4ccc(F)cc4O)c3C2=O)c1` (centres unmarked) [No 176, 2,5-dichloro-3-(4-fluoro-2-hydroxy-phenyl)-5-(m-tolyl)-7H-thieno[2,3-b]pyridine-4,6-dione] was “C (C≧75%)”.

With `O=C1Nc2scc(-c3ccccc3F)c2C(=O)C1(F)c1ccccc1` (centres unmarked) [No 177, 5-fluoro-3-(2-fluorophenyl)-5-phenyl-7H-thieno[2,3-b]pyridine-4,6-dione], the “Activity: Ratio between the % of control” value is recorded as “A (0%<A<50%)”. The value for `O=C1Nc2sc(F)c(-c3ccccc3F)c2C(=O)C1(F)c1ccccc1` (centres unmarked) [No 178, 2,5-difluoro-3-(2-fluorophenyl)-5-phenyl-7H-thieno[2,3-b]pyridine-4,6-dione] was “B (50%≦B<75%)”; that for `O=C1Nc2scc(-c3ccc(F)cc3F)c2C(=O)C1(F)c1ccccc1` (centres unmarked) [No 179, 3-(2,4-difluorophenyl)-5-fluoro-5-phenyl-7H-thieno[2,3-b]pyridine-4,6-dione] was “A (0%<A<50%)”. `COc1ccccc1-c1csc2c1C(=O)C(F)(c1ccccc1)C(=O)N2` (centres unmarked) [No 180, 5-fluoro-3-(2-methoxyphenyl)-5-phenyl-7H-thieno[2,3-b]pyridine-4,6-dione]: the “Activity: Ratio between the % of control” value was “A (0%<A<50%)”. Take `COc1ccccc1-c1c(F)sc2c1C(=O)C(F)(c1ccccc1)C(=O)N2` (centres unmarked) [No 181, 2,5-difluoro-3-(2-methoxyphenyl)-5-phenyl-7H-thieno[2,3-b]pyridine-4,6-dione]: the “Activity: Ratio between the % of control” value was “A (0%<A<50%)”. To `COc1cccc(C2(F)C(=O)Nc3scc(-c4ccccc4)c3C2=O)c1` (centres unmarked) [No 182, 5-fluoro-5-(3-methoxyphenyl)-3-phenyl-7H-thieno[2,3-b]pyridine-4,6-dione] belongs “C (C≧75%)”; to `COc1cccc(C2(F)C(=O)Nc3sc(F)c(-c4ccccc4)c3C2=O)c1` (centres unmarked) [No 183, 2,5-difluoro-5-(3-methoxyphenyl)-3-phenyl-7H-thieno[2,3-b]pyridine-4,6-dione], “B (50%≦B<75%)”.

The values are drawn from patent US9365584B2, “Thieno [2,3-B] pyridinedione activators of AMPK and therapeutic uses thereof” (Poxel, priority 2009, dated 2016).
